Laboratory results reported in patent US20200172483A1, “HETEROCYCLIC SMALL MOLECULE MODULATORS OF HUMAN STING” (Curadev Pharma Limited, priority 2017, published 2020).

Biological target: T1, WT/R232 STING protein (Homo sapiens, UniProt Q86WV6, H232R)
T1 construct: host or cells: HEK293T
Experiment: Luciferase reporter assay in HEK293T-hSTING-Luciferase cells (R232)
Format: cell-based
Details: 20 hr stimulation, EC50 range
Description: • a) Stable STING expressing cells—Stable HEK293T STING-expressing cell lines were generated using plasmids purchased from Invivogen, CA, USA, that contain STING cDNA cloned into the pUNO-1 vector under hEF1-HTLV promoter and containing the Blasticidin selection cassette. The plasmids hSTING (R232), hSTING (H232), hSTING (HAQ) were directly procured from Invivogen while hSTING (AQ) and hSTING (Q) were derived from hSTING (HAQ) and hSTING (R232) plasmids respectively by using a PCR based site directed mutagenesis method. These vectors were individually transfected into HEK293T cells using Lipofectamine (Invitrogen) and transfected cells were selected under Blasticidin selection. These transfected cells were further subjected to clonal selection using the limiting dilution method to obtain clonally pure populations of HEK cells transfected with each of the above mentioned human STING variants. Only those clones were selected in which ligand independent activation of STING was minimal. • b) Stable Luciferase reporter gene expressing cells—Stable HEK293T Luciferase reporter gene expressing cell lines were generated using pCDNA4 plasmids under an IRF-inducible promoter. This promoter is comprised of five tandem interferon-stimulated response elements (ISRE) fused to an ISG54 minimal promoter. This vector was transfected into HEK293T cells using Lipofectamine (Invitrogen) and transfected cells were selected under Zeocin selection. These transfected cells were further subjected to clonal selection using the limiting dilution method to obtain clonally pure populations of HEK cells transfected the Luciferase reporter construct. Only those clones were selected in which ligand independent induction of luciferase was minimal.
5×10^5 clonally selected HEK293T-hSTING-Luciferase cells were seeded in 384-well plates in growth medium and stimulated with novel compounds. After 20 hr of stimulation supernatant were removed and secretary reporter gene activity were measured using the Quanti-Luc detection system (Invivogen) on a Spectramax i3X luminometer.
All compounds were first tested in a primary screen using WT/R232 STING protein to obtain a ‘fold-induction’ over baseline levels of protein activity.

T1 sequence (Q86WV6 whole entry H232R): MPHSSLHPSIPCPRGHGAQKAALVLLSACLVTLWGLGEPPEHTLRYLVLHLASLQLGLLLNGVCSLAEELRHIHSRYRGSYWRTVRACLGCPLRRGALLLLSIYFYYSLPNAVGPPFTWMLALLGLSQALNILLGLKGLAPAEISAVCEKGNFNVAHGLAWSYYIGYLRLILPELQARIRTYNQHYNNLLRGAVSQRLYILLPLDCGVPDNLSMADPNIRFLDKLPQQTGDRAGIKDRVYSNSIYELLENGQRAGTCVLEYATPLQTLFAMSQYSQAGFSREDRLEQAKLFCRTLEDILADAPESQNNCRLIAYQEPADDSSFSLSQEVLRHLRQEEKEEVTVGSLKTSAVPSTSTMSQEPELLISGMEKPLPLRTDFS

| Compound | EC50 [µM] |
| --- | --- |
| CC1(C)C(=O)N(Cc2cc(F)cc(F)c2)c2c1ccc(C(=O)NCc1c(F)cc(F)cc1F)c2F [Example 35, 1-(3,5-difluorobenzyl)-7-fluoro-3,3-dimethyl-2-oxo-N-(2,4,6-trifluorobenzyl)indoline-6-carboxamide] | > 10 |
| CC1(C)C(=O)N(Cc2cccc(C(N)=O)c2)c2cc(C(=O)NCc3ccc(F)cc3F)ccc21 [Example 38, 1-(3-carbamoylbenzyl)-N-(2,4-difluorobenzyl)-3,3-dimethyl-2-oxoindoline-6-carboxamide] | 1 to 10 |
| CC1(C)C(=O)N(Cc2cc(F)cc(F)c2)c2cc(C(=O)NCC3CCC(F)(F)C3)ccc21 (stereo not shown) [Example 39, 1-(3,5-difluorobenzyl)-N-((3,3-difluorocyclopentyl)methyl)-3,3-dimethyl-2-oxoindoline-6-carboxamide] | > 10 |
| CC1(C)C(=O)N(Cc2cc(F)cc(F)c2)c2cc(C(=O)NCc3nc4ccccc4s3)ccc21 [Example 40, N-(benzo[d]thiazol-2-ylmethyl)-1-(3,5-difluorobenzyl)-3,3-dimethyl-2-oxoindoline-6-carboxamide] | 1 to 10 |
| CC1(C)C(=O)N(Cc2ccc(F)cc2)c2cc(C(=O)NCc3ccco3)ccc21 [Example 41, 1-(4-fluorobenzyl)-N-(furan-2-ylmethyl)-3,3-dimethyl-2-oxoindoline-6-carboxamide] | 1 to 10 |
| CC1(C)C(=O)N(Cc2cccc(F)c2)c2cc(C(=O)NCc3ccco3)ccc21 [Example 42, 1-(3-fluorobenzyl)-N-(furan-2-ylmethyl)-3,3-dimethyl-2-oxoindoline-6-carboxamide] | > 10 |
| CC1(C)C(=O)N(Cc2cc(F)cc(F)c2)c2cc(C(=O)NCC3CCC(F)(F)CC3)ccc21 [Example 43, 1-(3,5-difluorobenzyl)-N-((4,4-difluorocyclohexyl)methyl)-3,3-dimethyl-2-oxoindoline-6-carboxamide] | > 10 |
| CC1(C)C(=O)N(Cc2cc(F)cc(F)c2)c2cc(C(=O)NCc3cccc(C#N)c3)ccc21 [Example 44, N-(3-cyanobenzyl)-1-(3,5-difluorobenzyl)-3,3-dimethyl-2-oxoindoline-6-carboxamide] | > 10 |
| CC1(C)C(=O)N(Cc2cc(F)cc(F)c2)c2cc(C(=O)NCc3cccc(C(F)(F)F)c3)ccc21 [Example 45, 1-(3,5-difluorobenzyl)-3,3-dimethyl-2-oxo-N-(3-(trifluoromethyl)benzyl)indoline-6-carboxamide] | > 10 |
| CC1(C)C(=O)N(Cc2ccc(F)c(F)c2)c2cc(C(=O)NCc3ccco3)ccc21 [Example 46, 1-(3,4-difluorobenzyl)-N-(furan-2-ylmethyl)-3,3-dimethyl-2-oxoindoline-6-carboxamide] | 1 to 10 |
| CC1(C)C(=O)N(Cc2cc(F)cc(F)c2)c2cc(C(=O)NCc3cccc(N=[N+]=[N-])c3)ccc21 [Example 47, N-(3-azidobenzyl)-1-(3,5-difluorobenzyl)-3,3-dimethyl-2-oxoindoline-6-carboxamide] | 1 to 10 |
| CC1(C)C(=O)N(Cc2ccnc(F)c2)c2cc(C(=O)NCc3c(F)cc(F)cc3F)ccc21 [Example 49, 1-((2-fluoropyridin-4-yl)methyl)-3,3-dimethyl-2-oxo-N-(2,4,6-trifluorobenzyl)indoline-6-carboxamide] | 1 to 10 |
| Cc1ccc(CNC(=O)c2ccc3c(c2)N(Cc2ccccc2Cl)C(=O)C3(C)C)o1 [Example 51, 1-(2-chlorobenzyl)-3,3-dimethyl-N-((5-methylfuran-2-yl)methyl)-2-oxoindoline-6-carboxamide] | 1 to 10 |
| Cc1cc(CN2C(=O)C(C)(C)c3ccc(C(=O)NCc4c(F)cc(F)cc4F)cc32)on1 [Example 52, 3,3-dimethyl-1-((3-methylisoxazol-5-yl)methyl)-2-oxo-N-(2,4,6-trifluorobenzyl)indoline-6-carboxamide] | > 10 |
| CC1C(=O)N(Cc2cc(F)cc(F)c2)c2cc(C(=O)NCc3c(F)cc(F)cc3F)ccc21 (stereo not shown) [Example 53, 1-(3,5-difluorobenzyl)-3-methyl-2-oxo-N-(2,4,6-trifluorobenzyl)indoline-6-carboxamide] | > 10 |
| Cc1cc(CN2C(=O)C(C)(C)c3ccc(C(=O)NCc4ccc(C)o4)cc32)ccn1 [Example 55, 3,3-dimethyl-N-((5-methylfuran-2-yl)methyl)-1-((2-methylpyridin-4-yl)methyl)-2-oxoindoline-6-carboxamide] | > 10 |

| Compound | EC50 [µM] |
| --- | --- |
| Cc1ncc(CN2C(=O)C(C)(C)c3ccc(C(=O)NCc4c(F)cc(F)cc4F)cc32)s1 [Example 58, 3,3-dimethyl-1-((2-methylthiazol-5-yl)methyl)-2-oxo-N-(2,4,6-trifluorobenzyl)indoline-6-carboxamide] | 1 to 10 |
| Cc1ccc(CNC(=O)c2ccc3c(c2)N(CCc2ccccc2)C(=O)C3(C)C)o1 [Example 59, 3,3-dimethyl-N-((5-methylfuran-2-yl)methyl)-2-oxo-1-phenethylindoline-6-carboxamide] | 1 to 10 |
| Cc1ccc(CNC(=O)c2ccc3c(c2)N(CC(=O)c2ccccc2)C(=O)C3(C)C)o1 [Example 62, 3,3-dimethyl-N-((5-methylfuran-2-yl)methyl)-2-oxo-1-(2-oxo-2-phenylethyl)indoline-6-carboxamide] | > 10 |
| COc1cc(F)c(CN2C(=O)C(C)(C)c3ccc(C(=O)NCc4c(F)cc(F)cc4F)cc32)c(F)c1 [Example 64, 1-(2,6-difluoro-4-methoxybenzyl)-3,3-dimethyl-2-oxo-N-(2,4,6-trifluorobenzyl)indoline-6-carboxamide] | ≤ 1 |
| CC1(C)C(=O)N(Cc2c(F)cc(O)cc2F)c2cc(C(=O)NCc3c(F)cc(F)cc3F)ccc21 [Example 65, 1-(2,6-difluoro-4-hydroxybenzyl)-3,3-dimethyl-2-oxo-N-(2,4,6-trifluorobenzyl)indoline-6-carboxamide] | ≤ 1 |
| COc1ccc(F)c(CN2C(=O)C(C)(C)c3ccc(C(=O)NCc4c(F)cc(F)cc4F)cc32)c1Cl [Example 66, 1-(2-chloro-6-fluoro-3-methoxybenzyl)-3,3-dimethyl-2-oxo-N-(2,4,6-trifluorobenzyl)indoline-6-carboxamide] | ≤ 1 |
| CC1(C)C(=O)N(Cc2c(F)ccc(O)c2Cl)c2cc(C(=O)NCc3c(F)cc(F)cc3F)ccc21 [Example 67, 1-(2-chloro-6-fluoro-3-hydroxybenzyl)-3,3-dimethyl-2-oxo-N-(2,4,6-trifluorobenzyl)indoline-6-carboxamide] | ≤ 1 |
| Cn1cc(CN2C(=O)C(C)(C)c3ccc(C(=O)NCc4c(F)cc(F)cc4F)cc32)cn1 [Example 68, 3,3-dimethyl-1-((1-methyl-1H-pyrazol-4-yl)methyl)-2-oxo-N-(2,4,6-trifluorobenzyl)indoline-6-carboxamide] | 1 to 10 |
| CC1(C)C(=O)N(Cc2cc(F)cc(F)c2)c2cc(C(=O)NCc3ccc(F)o3)ccc21 [Example 69, 1-(3,5-difluorobenzyl)-N-((5-fluorofuran-2-yl)methyl)-3,3-dimethyl-2-oxoindoline-6-carboxamide] | 1 to 10 |
| Cn1nccc1CN1C(=O)C(C)(C)c2ccc(C(=O)NCc3c(F)cc(F)cc3F)cc21 [Example 77, 3,3-dimethyl-1-((1-methyl-1H-pyrazol-5-yl)methyl)-2-oxo-N-(2,4,6-trifluorobenzyl)indoline-6-carboxamide] | 1 to 10 |
| Cc1cccc(-c2nc(CN3C(=O)C(C)(C)c4ccc(C(=O)NCc5c(F)cc(F)cc5F)cc43)c(C)o2)c1 [Example 78, 3,3-dimethyl-1-((5-methyl-2-(m-tolyl)oxazol-4-yl)methyl)-2-oxo-N-(2,4,6-trifluorobenzyl)indoline-6-carboxamide] | > 10 |
| CC1(C)C(=O)N(Cc2cccc(C(N)=O)c2F)c2cc(C(=O)NCc3c(F)cc(F)cc3F)ccc21 [Example 79, 1-(3-carbamoyl-2-fluorobenzyl)-3,3-dimethyl-2-oxo-N-(2,4,6-trifluorobenzyl)indoline-6-carboxamide] | 1 to 10 |
| Cc1nn(C)cc1CN1C(=O)C(C)(C)c2ccc(C(=O)NCc3c(F)cc(F)cc3F)cc21 [Example 80, 1-((1,3-dimethyl-1H-pyrazol-4-yl)methyl)-3,3-dimethyl-2-oxo-N-(2,4,6-trifluorobenzyl)indoline-6-carboxamide] | > 10 |
| Cc1nc(CN2C(=O)C(C)(C)c3ccc(C(=O)NCc4c(F)cc(F)cc4F)cc32)co1 [Example 83, 3,3-dimethyl-1-((2-methyloxazol-4-yl)methyl)-2-oxo-N-(2,4,6-trifluorobenzyl)indoline-6-carboxamide] | > 10 |
| CC1(C)C(=O)N(Cc2c(F)cccc2C(F)(F)F)c2cc(C(=O)NCc3c(F)cc(F)cc3F)ccc21 [Example 84, 1-(2-fluoro-6-(trifluoromethyl)benzyl)-3,3-dimethyl-2-oxo-N-(2,4,6-trifluorobenzyl)indoline-6-carboxamide] | 1 to 10 |
